This is an account of results in PubChem BioAssay (NCI).

Test systems include A498 renal; ACHN renal; BT-549 breast; CAKI-1 renal; HCT-116 colon; HCT-15 colon; HOP-92 NSCLC; HS 578T breast; MDA-N; NCI-H226 lung; NCI-H522 lung; SK-MEL-28 melanoma; SK-MEL-5 melanoma; UO-31 renal.
What all share (assay): NCI-60 cell line screen, 48 h

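Interpolation was linear, between the two tested concentrations surrounding the appropriate level; five concentrations were tested over 48 hours in 96-well plates. Definition used: TGI = concentration required for complete inhibition of growth.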

In the case of `CC(C)CCNC(=O)c1ccc(CNC(=O)/C=C/c2csc(-c3ccccc3)n2)cc1`, the TGI in the test with A498 renal, in the test with ACHN renal, in the test on BT-549 breast, in the test with CAKI-1 renal, with HCT-116 colon and with HCT-15 colon was over 100 µM in each case. For the same compound, the TGI with HOP-92 NSCLC, with HS 578T breast, in the test with MDA-N, with NCI-H226 lung, in the test with NCI-H522 lung and in the test on SK-MEL-28 melanoma was over 100 µM throughout. In addition, the TGI in the test with SK-MEL-5 melanoma is over 100 µM; in the test on UO-31 renal it was 58.6 µM.

Consider `CC(=O)N1C(C(=O)NNc2ccccc2)CSC1c1ccccc1` (configuration not stated), for which the TGI in the test with A498 renal, in the test with ACHN renal, with BT-549 breast, with CAKI-1 renal, in the test on HCT-116 colon and in the test on HCT-15 colon was over 100 µM throughout. Moreover, the TGI with HOP-92 NSCLC, in the test on HS 578T breast, with MDA-N, with NCI-H226 lung, in the test on NCI-H522 lung and in the test with SK-MEL-5 melanoma was over 100 µM each time. This compound also yielded a TGI in the test with UO-31 renal of over 100 µM.

Consider `CC(C)/C(Cl)=N\OC(=O)Nc1ccc(F)c([N+](=O)[O-])c1`, for which the TGI is 41.7 µM in the test with A498 renal; 3.39 µM with ACHN renal; 27 µM with BT-549 breast; 3.27 µM in the test on CAKI-1 renal; 11.7 µM in the test with HCT-116 colon; 6.75 µM with HCT-15 colon. Besides, the TGI with HOP-92 NSCLC was 4.77 µM; with HS 578T breast, 25.1 µM; in the test with MDA-N, 29.4 µM; in the test with NCI-H226 lung it was 50.1 µM; in the test with NCI-H522 lung it was 2.45 µM; in the test on SK-MEL-28 melanoma it was 17.4 µM. Further, the TGI in the test on SK-MEL-5 melanoma was 22.4 µM; with UO-31 renal, 17.9 µM.

On to `CC(=O)O[C@H]1[C@@H](OC2CCCC2(c2ccccc2)c2ccccc2)O[N+]([O-])=C[C@@]12COCc1cc3c(cc12)OCO3` (some centres not stated), for which the TGI in the test on A498 renal is 7.67 µM; in the test on ACHN renal it was over 43.6 µM; with BT-549 breast, over 86.2 µM; in the test with CAKI-1 renal, over 100 µM; in the test with HCT-116 colon, over 47.5 µM; in the test on HCT-15 colon, 67 µM. The TGI was 30.7 µM in the test on HOP-92 NSCLC; over 100 µM in the test on HS 578T breast; over 100 µM in the test on MDA-N; 15.8 µM in the test with NCI-H226 lung; 5.35 µM in the test with NCI-H522 lung; over 28.4 µM with SK-MEL-28 melanoma. Besides, the TGI in the test on SK-MEL-5 melanoma is 16.8 µM; with UO-31 renal it was 14.1 µM.

As for `O=C(O)CSc1nnc(CCCCCCCCc2nnc(SCC(=O)O)o2)o1`, the TGI with A498 renal, with ACHN renal, in the test on BT-549 breast, in the test with CAKI-1 renal, in the test with HCT-116 colon and in the test on HCT-15 colon was over 100 µM each time. Also, the TGI in the test on HOP-92 NSCLC, in the test with HS 578T breast, in the test with MDA-N, in the test with NCI-H226 lung, with NCI-H522 lung and in the test on SK-MEL-28 melanoma was over 100 µM in each case. The TGI with SK-MEL-5 melanoma and in the test with UO-31 renal was over 100 µM each time.

Regarding `O=C(Nc1nncs1)NS(=O)(=O)n1cnc2ccccc21`, the TGI in the test on A498 renal, in the test on ACHN renal, in the test on BT-549 breast, in the test with CAKI-1 renal, in the test on HCT-116 colon and in the test on HCT-15 colon was over 100 µM in each case. In addition, the TGI with HOP-92 NSCLC, in the test with HS 578T breast, with MDA-N, in the test on NCI-H226 lung, with NCI-H522 lung and in the test with SK-MEL-28 melanoma was over 100 µM throughout. The TGI in the test with SK-MEL-5 melanoma was over 100 µM.

Take `COC1=CC(=O)c2c(O)ccc(O)c2C1=O`: the TGI worked out at 31.6 µM in the test on A498 renal; 34.4 µM in the test on ACHN renal; 6.17 µM with BT-549 breast; 31.2 µM with HCT-116 colon; 6.91 µM in the test on HCT-15 colon; 33 µM with HOP-92 NSCLC. For the same compound, the TGI in the test on HS 578T breast is 19.5 µM; with MDA-N it was 1.9 µM; in the test on NCI-H226 lung, 43.8 µM; with NCI-H522 lung, 26 µM; in the test on SK-MEL-28 melanoma, 3.71 µM; in the test with SK-MEL-5 melanoma it was 2.65 µM. The TGI with UO-31 renal came to 34.9 µM.

`COc1cc(C=Nc2ccc(S(N)(=O)=O)cc2)cc(OC)c1`: the TGI in the test with A498 renal, with ACHN renal, with BT-549 breast, in the test with CAKI-1 renal, in the test on HCT-116 colon and with HCT-15 colon was over 50 µM each time. Besides, the TGI in the test on HOP-92 NSCLC, with HS 578T breast, with MDA-N, with NCI-H226 lung, in the test on SK-MEL-28 melanoma and in the test on SK-MEL-5 melanoma was over 50 µM each time. Further, in the test on UO-31 renal, the TGI is over 50 µM.

`c1ccc(/N=N\Nc2ccc(-c3nc4ccccc4o3)cc2)nc1`: the TGI in the test with A498 renal, with ACHN renal, in the test on BT-549 breast, in the test with HCT-116 colon, in the test with HCT-15 colon and in the test with HOP-92 NSCLC was over 100 µM in each case. Further, the TGI in the test with HS 578T breast is over 100 µM; in the test with MDA-N, over 100 µM; in the test on NCI-H522 lung, over 100 µM; in the test with SK-MEL-28 melanoma it was over 100 µM; in the test on SK-MEL-5 melanoma it was 30.3 µM; with UO-31 renal, over 100 µM.

On to `NC(N)=NS(=O)(=O)c1ccc(Nc2c3ccccc3nc3c(C(=O)NC(CO)(CO)CO)cccc23)cc1`, for which the TGI was 72.6 µM in the test with A498 renal; 40.8 µM in the test with ACHN renal; 36.7 µM with BT-549 breast; over 100 µM with CAKI-1 renal; over 100 µM in the test on HCT-15 colon; 48.9 µM in the test with HOP-92 NSCLC. Further, the TGI in the test with HS 578T breast is 41.2 µM; in the test on MDA-N, over 100 µM; in the test on NCI-H522 lung, 30.9 µM; with SK-MEL-28 melanoma, over 100 µM; in the test on SK-MEL-5 melanoma it was 57.5 µM; in the test on UO-31 renal, 95.2 µM.
